Results: publication PMC12348470, “Amino Acid Substitutions in Bacteriocin Lactolisterin BU Reveal Functional Domains Involved in Biological Activity Against Staphylococcus aureus” (Molecules, 2025)
Ends that are not written are not given here.

Columns and labels:
S. aureus ATCC 25923 [1] = assay: Spot-on-the-lawn antimicrobial screening; format: cell-based, Staphylococcus aureus; conditions: 5 µL spots at 1000, 500, 250, 125 and 62.5 µg/mL on LB soft agar lawn; overnight, 37 °C
Protocol: The antimicrobial activity screening assay of twelve chemically synthesized peptides was evaluated using a spot-on-the-lawn assay against S. aureus ATCC 25923.
S. aureus ATCC 25923 was grown overnight in LB broth, adjusted to 0.5 McFarland (~1 × 10^8 CFU/mL), and mixed 1:100 into molten soft agar (0.7% agar in LB). Five milliliters of this suspension was overlaid onto LB agar plates and allowed to solidify.
Peptide stock solutions (1 mg/mL) were serially diluted in sterile water, and 5 µL of each dilution was carefully spotted onto the surface of the inoculated agar. The plates were dried under a laminar flow hood for 15–20 min and incubated overnight at 37 °C. Zones were observed, and their size and clarity were compared.

S. aureus ATCC 25923 [2] = format: cell-based, Staphylococcus aureus
Protocol: MIC values were determined by broth microdilution following the guidelines of the European Committee on Antimicrobial Susceptibility Testing (EUCAST, Version 5.0), with a modification in the choice of medium. Instead of cation-adjusted Mueller–Hinton Broth (CA-MHB), Luria–Bertani (LB) broth was used for all MIC assays involving S. aureus ATCC 25923 to ensure consistency with conditions used in complementary experiments. Two-fold serial dilutions of peptides (ranging from 1.56 to 50 µg/mL) were prepared in sterile LB, inoculated with ~5 × 10^5 CFU/mL bacterial suspension, and incubated at 37 °C for 18–20 h. MIC was defined as the lowest peptide concentration with no visible bacterial growth. All assays were performed in triplicate.

S. aureus ATCC 25923 [3] = format: cell-based, Staphylococcus aureus; remark: listed apart in the source
[4] = design: method as in PMID 28842543; conditions: cited from earlier work
Danio rerio embryos = assay: Zebrafish embryo toxicity (OECD TG 236); format: in vivo; conditions: 120 hpf
Protocol: Embryos were exposed to six different increasing concentrations of each peptide for 5 consecutive days (120 hfp) and examined for survival and signs of toxicity, following toxicological endpoints (Table S1).
The toxicity of synthetic peptide variants was assessed in vivo using Danio rerio embryos, in accordance with OECD Test Guideline 236 (Fish Embryo Acute Toxicity Test) and the European Directive 2010/63/EU on the protection of animals used for scientific purposes, according to Aleksic et al.. All procedures were conducted at the Institute of Molecular Genetics and Genetic Engineering, University of Belgrade.
Wild-type adult zebrafish were maintained under standard laboratory conditions (28 °C; 14:10 h light–dark cycle). Embryos were obtained via pairwise mating and collected within 1 h post-fertilization (hpf). At 5 hpf, the embryos were randomly distributed into 24-well plates (10 embryos/well, 1 mL embryo medium per well) containing embryo water (0.2 mg/mL Instant Ocean® salts in distilled water). Peptides were tested at five concentrations (e.g., 1.56–25 µg/mL) in triplicate. Peptide solvent was used as a negative control. The plates were incubated at 28 °C without media replacement.
Embryonic development was monitored using an inverted microscope (Zeiss Stemi 508; Carl Zeiss Microscopy GmbH, Jena, Germany). Lethal endpoints and sublethal malformations were scored according to OECD guidelines (Table S1). At 120 hpf, the embryos were anesthetized using 0.1% tricaine, photographed, and euthanized via freezing at −20 °C for 24 h.
LC50 values were estimated using the log–logistic binomial model (LL.2) from the drc package in R.
Dose–response curves and LC50 values were estimated using the log–logistic binomial model (LL.2) from the drc package in R [79] (version 2025.05.0). Mortality data were modeled as proportions of dead individuals relative to total individuals tested, and 95% confidence intervals for LC50 were calculated using the delta method.

gut peptidases = tested on: gut peptidases; design: method as in PMID 28842543; conditions: cited from earlier work
sheep erythrocytes = assay: Hemolysis assay; format: cell-based
Protocol: Hemolytic activity of peptides was assessed as described by Dong et al., with some modifications. Fresh defibrinated sheep blood was obtained from the Institute of Virology, Vaccines and Sera “Torlak” (Belgrade, Serbia). Erythrocytes were washed three times with sterile Tris-buffered saline (TBS, 10 mM TRIS-HCl, pH 7.4, 150 mM NaCl) by centrifugation at 800× g for 5 min and resuspended to a final 2% (v/v) erythrocyte suspension in TBS.
Peptide solutions (0.02 M HCl) were diluted in Tris-buffered saline (TBS, 10 mM TRIS-HCl, pH 7.4, 150 mM NaCl) to final concentrations ranging from 6.25 to 50 µg/mL. In a 96-well flat-bottom plate, 100 µL of peptide solution was mixed with 100 µL of erythrocyte suspension and incubated at 37 °C for 1 h.
After incubation, the plates were centrifuged at 1000× g for 5 min, and 100 µL of the supernatant was transferred to a flat-bottom 96-well plate. Absorbance was measured at 540 nm using a microplate reader (model BioTek Epoch Microplate Spectrophotometer; Agilent Technologies, Winooski, VT, USA).
Hemolysis (%) was calculated relative to a negative control (TBS; 0% lysis) and a positive control (0.1% SDS; 100% lysis) using the formula: Hemolysis (%)=Asample−ATBS/ASDS−ATBS×100
The assay was performed in triplicate.

Row | Sequence | zones of inhibition, spot-on-the-lawn assay (S. aureus ATCC 25923 [1]) | MIC (S. aureus ATCC 25923 [2]) | MBC (S. aureus ATCC 25923 [3]) | pH range of activity [4] | salt tolerance [4] | concentration at which yolk sac retention was observed (Danio rerio embryos) | sensitivity to gut peptidases (gut peptidases) | hemolytic activity, in words (sheep erythrocytes; 6.25 to 50 µg/mL, sheep erythrocytes, 37 °C, 1 h) | Hemolytic activity (%) at 50 µg/mL (sheep erythrocytes; pH 7.4)
1 | MEGRILGTVAKYGPKAVSWAWQHKWELINMGDLAFRYIQRIWG [Peptide W2E] | decreased antimicrobial potency | >50 µg/mL | >50 µg/mL |  |  |  |  |  | 
2 | MWARILGTVAKYGPKAVSWAWQAKWELINMGDLAFRYIQRIWG [G3A/H23A] | complete loss of antimicrobial activity | >50 µg/mL | >50 µg/mL |  |  |  |  |  | 
3 | MWGRILGTVAKYGAKAVSWAWQHKWELINMGDLAFRYIQRIWG [Peptide P14A] | only faint inhibition zones at the highest concentrations (1000 and 500 µg/mL) | 25 µg/mL |  |  |  |  |  |  | 
4 | MWGRILGTVAKYGPKAVSWAWQAKWELINMGDLAFRYIQRIWG [Peptide H23A] | complete loss of antimicrobial activity | >50 µg/mL | >50 µg/mL |  |  |  |  |  | 
5 | MWGRILGTVAKYGPKAVSWAWQHKWELINMGDLAFRYIQRIWG [LBU] | clear zones of inhibition across the tested concentrations, except 62.5 µg/mL | 12.5 µg/mL | 25 µg/mL | shows activity in a wide pH range | salt-tolerable | 6250 ng/mL | sensitive to gut peptidases | negligible hemolytic activity across all concentrations | 2.98%
6 | MWGRILGTVAKYGPKAVSWAWQRKWELINMGDLAFRYIQRIWG [Peptide H23R] | comparable to the wild-type LBU peptide | 12.5 µg/mL | 50 µg/mL |  |  |  |  |  | 
7 | MWGRILGTVAKYGTKAVSWAWQHKWELINMGDLAFRYIQRIWG [Peptide P14T] | retained partial activity with a mild decrease in zone diameter compared to LBU | 25 µg/mL | >50 µg/mL |  |  |  |  |  | 
